According to ChEMBL document CHEMBL1649341, “Citrusosides A-D and furanocoumarins with cholinesterase inhibitory activity from the fruit peels of Citrus hystrix” (J Nat Prod, 2010):
pIC50: −log10 of the molar value. The source made the active and inactive calls. No cut-off for these calls is given here.

Legend:
Cholinesterase = Cholinesterase (Equus caballus, UniProt P81908); assay: Inhibition of horse serum BChE after 2 mins by Ellman's reaction
[1] = target: Cholinesterase (Equus caballus) (UniProt P81908); assay: Inhibition of horse serum BChE at 14.8 mM after 2 mins by Ellman's reaction
[2] = target: Cholinesterase (Equus caballus) (UniProt P81908); assay: Inhibition of horse serum BChE at 7.2 mM after 2 mins by Ellman's reaction
[3] = target: Cholinesterase (Equus caballus) (UniProt P81908); assay: Inhibition of horse serum BChE at 65.1 uM after 2 mins by Ellman's reaction

Cholinesterase (Equus caballus), sequence (P81908 whole entry): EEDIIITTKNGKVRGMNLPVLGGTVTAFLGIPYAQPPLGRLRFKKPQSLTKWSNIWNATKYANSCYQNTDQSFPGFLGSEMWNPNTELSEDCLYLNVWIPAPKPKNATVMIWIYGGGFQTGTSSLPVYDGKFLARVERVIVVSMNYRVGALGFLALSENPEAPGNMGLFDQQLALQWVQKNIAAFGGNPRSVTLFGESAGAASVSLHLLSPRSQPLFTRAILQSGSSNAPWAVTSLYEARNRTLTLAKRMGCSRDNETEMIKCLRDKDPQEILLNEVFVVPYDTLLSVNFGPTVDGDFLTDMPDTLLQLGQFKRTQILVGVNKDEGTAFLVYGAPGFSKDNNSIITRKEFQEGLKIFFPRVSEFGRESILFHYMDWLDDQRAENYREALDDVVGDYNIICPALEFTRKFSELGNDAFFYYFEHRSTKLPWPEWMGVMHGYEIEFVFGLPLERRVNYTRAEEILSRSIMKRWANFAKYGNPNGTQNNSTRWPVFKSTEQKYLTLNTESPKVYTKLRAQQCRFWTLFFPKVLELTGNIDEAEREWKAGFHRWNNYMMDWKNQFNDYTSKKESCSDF
Cholinesterase, sequence (P81908 whole entry): as above

Compound	pIC50 (Cholinesterase)	other results
COC(C)(C)[C@H](O)CC/C(C)=C/COc1c2ccoc2cc2oc(=O)ccc12	4.95	
C/C(=C\COc1c2ccoc2cc2oc(=O)ccc12)CC[C@@H](OC(=O)CC(C)(O)CC(=O)OC[C@H]1O[C@@H](OC(C)C)[C@H](O)[C@@H](O)[C@@H]1O)C(C)(C)O (stereo partly drawn) [CITRUSOSIDE B]	3.47	
CC(C)=CCC/C(C)=C/COc1c2ccoc2cc2oc(=O)ccc12		inhibition [1]: inactive
CC(C)O[C@@H]1O[C@H](CO)[C@@H](O)[C@H](OC(=O)CC(C)(O)CC(=O)O[C@H](COc2c3ccoc3cc3oc(=O)ccc23)C(C)(C)O)[C@H]1O (stereo partly drawn)		inhibition [2]: inactive
CC(C)=CCC[C@@H](C)C/C=C/C(=O)OC[C@H]1O[C@@H](OC(C)C)[C@H](O)[C@@H](O)[C@@H]1O [CITRUSOSIDE A]	3.42	
C/C(=C\COc1c2ccoc2cc2oc(=O)ccc12)CC[C@@H](O)C(C)(C)O	4.81	
CC(C)=CCOc1c2ccoc2cc2oc(=O)ccc12 [ISOIMPERATORIN]	4.64	
CC(C)(O)[C@H](O)COc1c2ccoc2cc2oc(=O)ccc12		inhibition [3]: 24.6%
